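Grown in 96-well plates, cells were treated for 48 hours with each compound at five concentrations. Insufficient inhibition: endpoint recorded as highest concentration tested. GI50 is the concentration that inhibits growth by half. TGI is the concentration that stops growth completely.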
Experiments:
Test in all cases: NCI tumour cell line growth inhibition, 48 h
[1] = tested on: ACHN renal
[2] = tested on: OVCAR-5 ovarian
[3] = tested on: SK-MEL-5 melanoma
[4] = tested on: COLO 205 colon
[5] = tested on: OVCAR-4 ovarian
[6] = tested on: OVCAR-3 ovarian
[7] = tested on: SNB-19 CNS
[8] = tested on: OVCAR-8 ovarian
[9] = tested on: K-562 leukemia
[10] = tested on: SK-MEL-28 melanoma

| SMILES | GI50 [1] | TGI [1] | GI50 [2] | TGI [2] | GI50 [3] | TGI [3] | GI50 [4] | TGI [4] | GI50 [5] | TGI [5] | GI50 [6] | TGI [6] | GI50 [7] | TGI [7] | GI50 [8] | TGI [8] | GI50 [9] | TGI [9] | GI50 [10] | TGI [10] |
| --- | --- | --- | --- | --- | --- | --- | --- | --- | --- | --- | --- | --- | --- | --- | --- | --- | --- | --- | --- | --- |
| CC1=CC(=NC(=O)CBr)C=C/C1=N\S(=O)(=O)c1ccccc1 | 2.77 µM | 8.98 µM | 2.65 µM | 6.86 µM | 1.79 µM | 3.98 µM | 5.96 µM | 21.2 µM | 2.61 µM | 13.2 µM | 2.04 µM | 4.47 µM | 13.6 µM | 26.9 µM | 3.29 µM | 11.1 µM | 2.54 µM | 6.44 µM | 6.25 µM | 19.4 µM |
| CCOc1c(Br)cc(C2C(C(=O)OC)=CN(C)C=C2C(=O)OC)cc1OC | 77.6 µM | > 100 µM | > 100 µM | > 100 µM | 40.5 µM | > 100 µM | 99.2 µM | > 100 µM | 54.1 µM | > 100 µM | 45.6 µM | > 100 µM | 83.8 µM | > 100 µM | 68.1 µM | > 100 µM | 50.6 µM | > 100 µM | > 100 µM | > 100 µM |
| COc1cc2nc3sc(C(=O)Nc4ccc(C(=O)OC(C)C)cc4)c(C(=O)Nc4ccc(Cl)cc4C)n3c(=O)c2cc1OC | 23.8 µM | > 100 µM | 17.4 µM | 50.2 µM | 6.08 µM | > 100 µM | 7.02 µM | 51.9 µM | 11.2 µM | > 100 µM | 2.66 µM | 10.6 µM | 28 µM | 95.3 µM | 12.6 µM | > 100 µM | 5.29 µM | > 100 µM | 46.2 µM | > 100 µM |
| C[n+]1c(/C=C\c2ccc(Cl)cc2)ccc2ccccc21 | 81.6 µM | > 100 µM | 4.36 µM | > 100 µM | 5.56 µM | 18 µM | 4.28 µM | 24.4 µM | 12 µM | > 100 µM | 7.34 µM | 31.4 µM | 4.49 µM | > 100 µM | 6.82 µM | 91.1 µM | 8.69 µM | > 100 µM | 13.6 µM | 54.3 µM |
| Cn1cncc1[C@@](N)(c1ccc(Cl)cc1)c1ccc2c(c1)c(-c1cccc(Cl)c1)cc(=O)n2C | 3.05 µM | 14.9 µM | 5.59 µM | 19.3 µM | 1.8 µM | 6.83 µM | 2.31 µM | 9.09 µM | 2.14 µM | 14.7 µM | 2.55 µM | 7.86 µM | 5.61 µM | 19.7 µM | 2.78 µM | 14.8 µM | 0.669 µM | 6.16 µM | 2.8 µM | 14.7 µM |
| CC(C)=CCC[C@H](C)[C@@H]1CC[C@]2(C)C3CC[C@]4(OC4(C)C)C(CCCO)[C@]3(C)CC[C@@]12C (stereo not given in full) | 13.7 µM | 32.4 µM | 21 µM | 47.1 µM | 22.7 µM | 42.9 µM | 31.5 µM | > 100 µM | 25.3 µM | 59 µM | 26.7 µM | 52.8 µM | 24 µM | 62.3 µM | 37.7 µM | > 100 µM | 25.3 µM | 73.3 µM | 23.9 µM | 58.5 µM |
| Cn1cc(C2=C(c3cccc4ccccc34)C(=O)NC2=O)c2ccccc21 | 7.48 µM | > 25 µM | 12.8 µM | > 25 µM | 5.1 µM | 11.9 µM | 7.23 µM | > 22.9 µM | 7.21 µM | > 23.8 µM | 6.06 µM | 14.4 µM | 14 µM | > 25 µM | 7.17 µM | 19 µM | 10.3 µM | > 25 µM | 8.91 µM | > 25 µM |
| Cc1[nH]c2ccccc2c1C1Cc2ccccc2N1C(=O)/C=C/C=C/c1ccccc1 (stereo not given) | – | > 100 µM | – | > 100 µM | – | > 100 µM | – | > 100 µM | – | > 100 µM | – | > 100 µM | – | > 100 µM | – | > 100 µM | – | > 100 µM | – | > 100 µM |
| CCOc1cccc(/C=N/NC(=O)c2ccc(Nc3ccnc(C(F)(F)F)c3)cc2)c1O | 0.728 µM | > 79.1 µM | 7.18 µM | > 100 µM | 1.18 µM | 8.11 µM | 1.14 µM | > 38.3 µM | 0.755 µM | > 100 µM | 0.298 µM | 28 µM | 4.69 µM | > 100 µM | 0.599 µM | > 72.5 µM | 0.947 µM | > 31.6 µM | 1.63 µM | > 58.5 µM |
| COc1ccc2nc(-c3cc(-c4cc(OC)c(OC)c(OC)c4)n[nH]3)[nH]c2c1 | 2.63 µM | 10.7 µM | 3.03 µM | 12.6 µM | 0.462 µM | 1.77 µM | 1.61 µM | 3.24 µM | 1.24 µM | 4.81 µM | 2.05 µM | 6.18 µM | 2.98 µM | 14.1 µM | 1.15 µM | 3.2 µM | 2.01 µM | > 100 µM | 1.9 µM | 5.26 µM |
| CC[C@@H](C(=O)[C@@H](C)[C@@H](O)[C@H](C)[C@@H]1O[C@@H]([C@@H](CC)C(=O)O)CC[C@@H]1C)C1O[C@]2(C=CC(=O)[C@]3(CC[C@@](C)([C@H]4CC[C@](O)(CC)[C@H](C)O4)O3)O2)[C@H](C)C[C@@H]1C (stereo not given in full) | 1.33 µM | 14.9 µM | 0.734 µM | 21.5 µM | 0.0658 µM | 0.232 µM | 0.159 µM | 2.1 µM | 1.1 µM | 17.9 µM | 0.0547 µM | 12.5 µM | 0.4 µM | 6.96 µM | 1.73 µM | > 45.2 µM | 0.371 µM | > 27.4 µM | 1.26 µM | 2.53 µM |
| Cc1cc(O)cc2oc(=O)c3c(O)cc(O)cc3c12 | – | 71.1 µM | – | > 100 µM | – | > 100 µM | – | 66.7 µM | – | > 100 µM | – | 58.4 µM | – | 76 µM | – | > 100 µM | – | > 100 µM | – | > 100 µM |
| C1=Cc2ccccc2Nc2ccccc21 | > 100 µM | > 100 µM | > 100 µM | > 100 µM | > 100 µM | > 100 µM | > 100 µM | > 100 µM | > 100 µM | > 100 µM | > 100 µM | > 100 µM | > 100 µM | > 100 µM | > 100 µM | > 100 µM | > 100 µM | > 100 µM | > 100 µM | > 100 µM |
| COc1cc(-c2nc(Nc3nc4ccccc4[nH]3)nc(N)c2C#N)cc(OC)c1OC | 14.5 µM | > 100 µM | 27.8 µM | > 86.4 µM | 0.414 µM | 16.2 µM | 1.74 µM | > 50.7 µM | 12.9 µM | 34.7 µM | 0.286 µM | 3.61 µM | 21 µM | > 100 µM | 28.9 µM | > 100 µM | 8.45 µM | > 100 µM | 19.1 µM | > 100 µM |
| O=C1CC(c2ccc(N3CCOCC3)cc2)(c2ccsc2)NC(=O)C1Sc1ccccc1Cl (stereo not given) | 47.4 µM | > 100 µM | > 100 µM | > 100 µM | 36.6 µM | > 100 µM | > 100 µM | > 100 µM | > 100 µM | > 100 µM | 67 µM | > 100 µM | 30.3 µM | > 100 µM | 7.68 µM | > 100 µM | 4.69 µM | > 100 µM | 38.4 µM | > 100 µM |
| C/C(CC(=O)Nc1ccc(Cl)c(Cl)c1)=N/NC(=O)C[n+]1ccccc1 | – | > 100 µM | – | > 100 µM | – | > 100 µM | – | > 100 µM | – | > 100 µM | – | > 100 µM | – | > 100 µM | – | > 100 µM | – | > 100 µM | – | > 100 µM |
| COc1ccc(C(=O)OCC2OC(n3cnc4c(=S)nc[nH]c43)C(OC(=O)c3ccc(OC)cc3)C2OC(=O)c2ccc(OC)cc2)cc1 (stereo not given) | – | > 100 µM | – | > 100 µM | – | > 100 µM | – | > 100 µM | – | > 100 µM | – | > 100 µM | – | > 100 µM | – | > 100 µM | – | > 100 µM | – | > 100 µM |
| COc1ccc2c(=O)c(C)c(-c3ccccc3)oc2c1CN(C)C | – | > 100 µM | – | > 100 µM | – | > 100 µM | – | > 100 µM | – | > 100 µM | – | > 100 µM | – | > 100 µM | – | > 100 µM | – | > 100 µM | – | > 100 µM |
| O=C(CN1CCN(c2ncnc3ccccc23)CC1)Nc1ccc(Cl)cc1C(=O)c1ccccc1Cl | 1.67 µM | 18.7 µM | 2.92 µM | > 42.2 µM | 0.5 µM | 2.7 µM | 0.349 µM | 1.33 µM | 1.32 µM | 9.36 µM | 0.273 µM | 0.824 µM | 1.71 µM | 12.2 µM | 1.28 µM | > 30.9 µM | 0.838 µM | > 52.4 µM | 1.03 µM | 3.36 µM |
| Cc1ccc([N+](=O)[O-])c2c(NCCNC(=O)Cn3ccnc3[N+](=O)[O-])ccnc12 | – | > 100 µM | – | > 100 µM | – | > 100 µM | – | > 100 µM | – | > 100 µM | – | 52.6 µM | – | > 100 µM | – | > 100 µM | – | > 100 µM | – | > 100 µM |
